Measurements taken from US20230123334A1, “AMINO LIPID COMPOUND, PREPARATION METHOD THEREFOR, AND APPLICATION THEREOF” (SHENZHEN SHENXIN BIOTECHNOLOGY CO., LTD., priority 2020, published 2023).

The molecules below were run on HEK293 cells (assay: Preliminary screening as DNA vectors, GFP transfection of HEK293 cells). Settings: amino lipid/DOPE liposome with 75 ng plasmid DNA (psin-EGFP-IRES-Puro); number of GFP-expressing cells divided by total nuclei (Hoechst).
Type: cell-based
Method: Cell line: HEK293 cells (ATCC CRL-1573™)
Medium: DMEM supplemented with 10% fetal bovine serum (Invitrogen)
Mode of screening: cell transfection on 96-well plates
Detection (readout): percentage of the number of GFP fluorescent cells relative to the total number of cells (the total number of cells was measured using nucleus dye Hoechst—see FIG. 2). Lipofectamine2000 (Invitrogen) was used as positive control, according to the manufacturer's instructions.
Method: an 8-channel pipette was used for sample addition. The contents shown were for a single well of a 96-well flat plate.
1. The compound (0.01 mmol) prepared in Example 1 was dissolved in 1 mL of anhydrous ethanol. After ultrasonically dissolved, 10 μL of the resultant amino lipid solution in ethanol was taken and mixed with 5 μL of DOPE solution in ethanol (0.01 m), and then to the obtained mixture was added 35 μL of 0.2M sodium acetate buffer (pH 5.6), and 50 μL of liposome solution was prepared by vortex at a constant rotating speed for 30 s. 4 μL was taken from the 50 μL liposome solution and added to 46 μL of 0.02M sodium acetate buffer (pH 5.6), and the final liposome solution was formed by vortex at a constant rotating speed for 30 s. 5 μL was taken from the final liposome solution and mixed with 75 ng plasmid DNA (psin-EGFP-IRES-Puro, Clontech) dissolved in 5 μL of 0.02 M sodium acetate buffer, and was allowed to stay at room temperature for 30 min to form a lipid/DNA transfection complex.
2. 10 μL of the lipid/DNA transfection complex was incubated at room temperature for 30 min, followed by addition of 90 μL of fresh resuspended cells (3-5×10^4 cells) and mixing with a pipette. 100 μL of cells+lipid/DNA complex was transferred to separate wells of a 96-well culture plate immediately, and placed in an incubator containing 5% CO2 at 37° C.
3. Hoechst33258 (Invitrogen) was added at a final concentration of 0.2 μg/mL to the cells 20 to 24 hours after initial cell transfection, and cultured in darkness at 37° C. for 15 min. Afterwards, the cells were washed once with a PBS solution, and then added with medium for culture for 20 to 24 h.
4. The cells were placed in a high-throughput confocal microscope (Molecular Devices ImageXpress), and four visual fields of the image of the cells were captured for each well, and images at three laser wavelengths were captured for each sample: bright field images of cells (FIG. 2(a) and FIG. 2(b)), Hoechst-staining images showing total nuclei (FIG. 2(c) and FIG. 2(d)) and GFP images showing success in transfection with the plasmid DNA and the expression of GFP (FIG. 2(e) and FIG. 2(f)). MetaXpress software was used to separately count the cells in the Hoechst-staining images and GFP images, and then the number of cells expressing GFP was divided by the total number of nuclei to give the absolute cell transfection efficiency. The absolute transfection efficiency was calculated as follows: […]

SMILES | Absolute DNA transfection efficiency in HEK293 cells [%]
CCCCCCCCCCCCSc1nc(NCCCCCCCCCCC)nc(NCCCN2CCN(C)CC2)n1 [S12N11 D9] | 3.9
CCCCCCCCCCCCCCCCNc1nc(NCCN2CCN(C)CC2)nc(SCCCCCCC)n1 [S7N16 D5] | 18.2
CCCCCCCCCCCCCCSc1nc(NCCCN2CCN(C)CC2)nc(SCCCCCC)n1 [S6S14 D9] | 4.1
CCCCCCCCCCCCCCCCNc1nc(NCCN2CCCCC2)nc(SCCCCCCCCCCCCCC)n1 [S14N16 D4] | 1.9
CCCCCCCCCCCCCCCCNc1nc(NCCN(C)C)nc(SCCCCCCCCCCCCCC)n1 [S14N16 D1] | 0.7
CCCCCCCCCCCCN(CCCCCCCCCCCC)c1nc(NCCN2CCCC2)nc(SCCCCCCCCCCC)n1 [S11^2N12 D3] | 0.0
CCCCCCCCCCCCNc1nc(NCCN2CCOCC2)nc(SCCCCCCCCC)n1 [S9N12 D2] | 13.0
CCCCCCCCCNc1nc(NCCCN2CCN(C)CC2)nc(SCCCCCCC)n1 [S7N9 D9] | 22.8
CCCCCCCCCCCCN(CCCCCCCCCCCC)c1nc(NCCCN(C)C)nc(SCCCCCC)n1 [S6^2N12 D6] | 0.2
CCCCCCCCCCCCCCSc1nc(NCC2CCN(C)CC2)nc(SCCCCCCC)n1 [S7S14 D10] | 26.7
CCCCCCCCCCCCCCCCCCSc1nc(NCCCN2CCOCC2)nc(SCCCCCCC)n1 [S7S18 D8] | 16.1
CCCCCCCCCCCCNc1nc(NCC2CCN(C)CC2)nc(SCCCCCCCCC)n1 [S9N12 D10] | 25.8
CCCCCCCCCCCCNc1nc(NCCN2CCCCC2)nc(SCCCCCCCC)n1 [S8N12 D4] | 7.6
CCCCCCCCCCCCCCCCCCSc1nc(NCCCCCCCCCCC)nc(NCCN(C)C)n1 [S18N11 D1] | 3.7
CCCCCCCCCCCCCCCNc1nc(NCCN2CCN(C)CC2)nc(SCCCCCCCCCC)n1 [S10N15 D5] | 3.2
CCCCCCCCSc1nc(NCCCN(C)C)nc(SCCCCCC)n1 [S6S8 D6] | 7.4
CCCCCCCCCCCCN(CCCCCCCCCCCC)c1nc(NCCN(C)C)nc(SCCCCCCCCCC)n1 [S10^2N12 D1] | 3.2
CCCCCCCCCNc1nc(NCCCN(C)C)nc(SCCCCCCC)n1 [S7N9 D6] | 25.9
CCCCCCCCCCCCCCCCSc1nc(NCCCCCCCC)nc(NCCCN2CCOCC2)n1 [S16N8 D8] | 16.5
CCCCCCCSc1nc(NCCN2CCCC2)nc(SCCCCCCC)n1 [S7S7 D3] | 9.2

SMILES | Absolute DNA transfection efficiency in HEK293 cells [%]
CCCCCCCCCCCCCCCCSc1nc(NCCCCCCCCC)nc(NCCN2CCOCC2)n1 [S16N9 D2] | 7.4
CCCCCCCCCCCCCCCCSc1nc(NCCCCCC)nc(NCCN2CCN(C)CC2)n1 [S16N6 D5] | 18.7
CCCCCCCCCCCCCCSc1nc(NCCCCCCCCCCC)nc(NCCN2CCOCC2)n1 [S14N11 D2] | 12.5
CCCCCCCCCCCCCCCCCCSc1nc(NCCN(C)C)nc(SCCCCCCC)n1 [S7S18 D1] | 3.7
CCCCCCCSc1nc(NCCN(C)C)nc(SCCCCCC)n1 [S6S7 D1] | 0.5
CCCCCCCCCCCCCCSc1nc(NCCCCCCC)nc(NCCCN2CCN(C)CC2)n1 [S14N7 D9] | 16.1
CCCCCCCCCCCCCCCNc1nc(NCC2CCN(C)CC2)nc(SCCCCCCCCCCCC)n1 [S12N15 D10] | 4.0
CCCCCCCCCCCCCCCCCCSc1nc(NCCCCCCCCCCC)nc(NCC2CCN(C)CC2)n1 [S18N11 D10] | 2.7
CCCCCCCCCCSc1nc(NCCCCCC)nc(NCCCN2CCOCC2)n1 [S10N6 D8] | 0.6
CCCCCCCCCNc1nc(NCCCN2CCOCC2)nc(SCCCCCCCCC)n1 [S9N9 D8] | 14.8
CCCCCCCCCCCCN(CCCCCCCCCCCC)c1nc(NCCN2CCCCC2)nc(SCCCCCCCCC)n1 [S9^2N12 D4] | 0.0
CCCCCCCCCCCCN(CCCCCCCCCCCC)c1nc(NCC2CCN(C)CC2)nc(SCCCCCCC)n1 [S7^2N12 D10] | 0.5
CCCCCCCNc1nc(NCCN(C)C)nc(SCCCCCC)n1 [S6N7 D1] | 0.1
CCCCCCCCCCCCCCSc1nc(NCCN2CCCCC2)nc(SCCCCCCC)n1 [S7S14 D4] | 9.1
CCCCCCCCCCCCCCCCNc1nc(NCC2CCN(C)CC2)nc(SCCCCCCCCCCCCCCCC)n1 [S16N16 D10] | 0.2
CCCCCCCCCCCCCCCCNc1nc(NCCN2CCCC2)nc(SCCCCCCCCCCCCCC)n1 [S14N16 D3] | 1.3
CCCCCCCCCCCCNc1nc(NCCN(CC)CC)nc(SCCCCCC)n1 [S6N12 D7] | 2.2
CCCCCCCCSc1nc(NCCN(C)C)nc(SCCCCCCC)n1 [S7S8 D1] | 6.7
CCCCCCCCCCCCCCCCCCSc1nc(NCCN2CCOCC2)nc(N(CCCCCCCCCCCC)CCCCCCCCCCCC)n1 [S18^2N12 D2] | 0.0
CCCCCCCCSc1nc(NCC2CCN(C)CC2)nc(SCCCCCCC)n1 [S7S8 D10] | 0.0

SMILES | Absolute DNA transfection efficiency in HEK293 cells [%]
CCCCCCCCCCCCCCCSc1nc(NCCCCCCCCC)nc(NCCN2CCN(C)CC2)n1 [S15N9 D5] | 17.5
CCCCCCCCCCCCNc1nc(NCCCN2CCN(C)CC2)nc(SCCCCCCCCCC)n1 [S10N12 D9] | 3.6
CCCCCCCCCCCCCCCSc1nc(NCCCCCCCCCCCC)nc(NCCN2CCCC2)n1 [S15N12 D3] | 11.5
CCCCCCCCCCCCCCCSc1nc(NCCCCCCCCC)nc(NCCN(C)C)n1 [S15N9 D1] | 21.3
CCCCCCCCCCCCCCSc1nc(NCCN(CC)CC)nc(SCCCCCCC)n1 [S7S14 D7] | 4.0
CCCCCCCCCCCNc1nc(NCCN(CC)CC)nc(SCCCCCCCCCC)n1 [S10N11 D7] | 5.0
CCCCCCCCCCCSc1nc(NCCCCCC)nc(NCCN(C)C)n1 [S11N6 D1] | 33.1
CCCCCCCSc1nc(NCCN(C)C)nc(SCCCCCCC)n1 [S7S7 D1] | 7.9
CCCCCCCCCCCCCCCCNc1nc(NCCN(C)C)nc(SCCCCCCCCCCCC)n1 [S12N16 D1] | 0.5
CCCCCCCCSc1nc(NCCCCCCC)nc(NCCN2CCCC2)n1 [S8N7 D3] | 3.9
CCCCCCCCCCCCCCCCNc1nc(NCCCN2CCN(C)CC2)nc(SCCCCCCC)n1 [S7N16 D9] | 12.9
CCCCCCCCCCCCCCSc1nc(NCCCCCC)nc(NCCN(CC)CC)n1 [S14N6 D7] | 20.3
CCCCCCCCCCCCCCCCNc1nc(NCCCN(C)C)nc(SCCCCCCCCCCCC)n1 [S12N16 D6] | 2.1
CCCCCCCCCCCCSc1nc(NCCCCCCCC)nc(NCCN2CCOCC2)n1 [S12N8 D2] | 0.1
CCCCCCCSc1nc(NCCN2CCN(C)CC2)nc(SCCCCCC)n1 [S6S7 D5] | 5.7
CCCCCCCCCCCCCCCCCCSc1nc(NCCN2CCCC2)nc(SCCCCCCC)n1 [S7S18 D3] | 11.2
CCCCCCCCCCCCNc1nc(NCC2CCN(C)CC2)nc(SCCCCCCC)n1 [S7N12 D10] | 45.7
CCCCCCCCCCCCN(CCCCCCCCCCCC)c1nc(NCCCN2CCOCC2)nc(SCCCCCCC)n1 [S7^2N12 D8] | 0.0
CCCCCCCCCCCSc1nc(NCCCCCC)nc(NCCCN(C)C)n1 [S11N6 D6] | 29.3
CCCCCCCCNc1nc(NCCCN2CCOCC2)nc(SCCCCCCC)n1 [S7N8 D8] | 2.7
